From the NIST ThermoML archive (doi:10.1016/j.jct.2013.03.023)
Numbers after ± are expanded uncertainties.

Conditions: 101.33 kPa, Liquid; for viscosity: Capillary tube (Ostwald / Ubbelohde) method; for mass density: Vibrating tube method

Structure (SMILES)	viscosity (298.15 K) [mPa·s]	mass density (298.15 K) [kg/m3]	viscosity (303.15 K) [mPa·s]	mass density (303.15 K) [kg/m3]	viscosity (308.15 K) [mPa·s]	mass density (308.15 K) [kg/m3]	viscosity (313.15 K) [mPa·s]	mass density (313.15 K) [kg/m3]
O [water]	0.891 ± 0.019	–	–	–	–	–	–	–
CCc1ccccc1 [ethylbenzene]	0.6378 ± 0.014	862.51 ± 1	0.609 ± 0.013	858.1 ± 1	0.5682 ± 0.012	853.68 ± 1	0.541 ± 0.012	849.26 ± 1
CC(O)c1ccccc1 (configuration not stated) [1-phenylethanol]	8.703 ± 0.2	1009 ± 1	6.981 ± 0.16	1004.86 ± 1	5.714 ± 0.13	1000.73 ± 1	4.748 ± 0.11	996.58 ± 1
